These results are taken from publication PMC9572621, “Fe(III) and Cu(II) Complexes of Chlorogenic Acid: Spectroscopic, Thermal, Anti-/Pro-Oxidant, and Cytotoxic Studies” (Materials, 2022).

SMILES strings stand for the structures. Converted amounts (≈) assume the structure as drawn.

The conditions of data set [1]: radical assay not named at the place (ABTS•+/DPPH• scavenging discussed); read-out: EC50 (antioxidant); cited from earlier work. Background: DPPH is a stable violet radical that fades when it is reduced.
Data set [2] concerns Stenotrophomonas maltophilia. Further details: method as in doi:10.15199/62.2017.11.9, PMID 25209896. The note with it: cited from earlier work.
The next data set is described as follows: MTS cell viability assay. The settings on record: human, HaCaT keratinocyte cells, 1000 nM. In kind it is cell-based. A general note: Tetrazolium assays rely on reduction of a dye to a coloured formazan, in cell work by metabolically active cells.
In the next data set the test system is Staphylococcus aureus. Further details: method as in doi:10.15199/62.2017.11.9, PMID 26528244, PMID 24228999. The settings on record: cited from earlier work.
The conditions of data set [3]: cited from earlier work.
A further data set has as its system Candida albicans. Further details: method as in doi:10.15199/62.2017.11.9, PMID 25209896. The note with it: cited from earlier work.
On the set-up of data set [4]: method as in PMID 29401704. The note with it: compound 5 μM; cited from earlier work.
Details of data set [5]: method as in PMID 15246878. The settings on record: read-out: IC50, inhibition of the superoxide-driven reduction of NBT by 50%; flavonoid:metal ion ratio 1:1 for complexes; cited from earlier work.

What is called EC50 is the concentration at which the effect is half-maximal. For the compound `O=C1O[C@H]([C@@H](O)CO)C(O)=C1O` [L-ascorbic acid], the EC50 in data set [1] was 10.3 ± 0.98 µM.

Usually viability stands for a read-out of living cells in per cent, often relative to untreated cells. A word on the MIC: it is the lowest concentration found to suppress growth. For `O=C(/C=C/c1ccc(O)c(O)c1)O[C@@H]1C[C@](O)(C(=O)O)C[C@@H](O)[C@H]1O` [5-CQA, 5-caffeoylquinic acid], in data set [2], the “activity against Stenotrophomonas maltophilia” value is listed as “shows activity”. The viability at 24 h, 1 µM in “MTS cell viability assay” was 101 ± 4.5%. In the data set with Staphylococcus aureus, the MIC is 500 mg/L (≈ 1410 µM). In data set [3], the “pKa1 (COOH)” value is recorded as 3.35, the pKa2 is listed as 8.30 and the “pKa3 (OH in the meta position)” value was 12.06. In the data set on Candida albicans, the MIC was 80 mg/L (≈ 226 µM).

As to `O=C(C=Cc1ccc(O)c(O)c1)OC1CC(O)(C(=O)[O-])CC(O)C1O.[Li+]` (stereo not shown) [CQA/Li], in data set [4], the FRAP activity was 106.92 µM Fe^2+.

By IC50 is commonly meant the concentration that gives 50% inhibition. In the case of `C[C@@H]1O[C@@H](OC[C@H]2O[C@@H](Oc3c(-c4ccc(O)c(O)c4)oc4cc(O)cc(O)c4c3=O)[C@H](O)[C@@H](O)[C@@H]2O)[C@H](O)[C@H](O)[C@H]1O` [rutin], the IC50 in data set [5] was 9 µM.
